Source: patent publication US20210355106A1, “NEW AMINO-PYRIMIDONYL-PIPERIDINYL DERIVATIVES, A PROCESS FOR THEIR PREPARATION AND PHARMACEUTICAL COMPOSITIONS CONTAINING THEM” (LES LABORATOIRES SERVIER, priority 2018, published 2021)

What was measured:
[1] = tested on: Z138 mantle cell lymphoma tumour cell lines; experiment: In vitro cytotoxicity, MTT assay; type: cell-based; settings: Z138 cells, exposed to the test compounds for 96 hours
Method: The cytotoxicity studies were evaluated by MTT [3-(4,5-dimethylthiaxol-2-yl)-2,5-diphenyltetrazolium bromide|assay and carried out on Z138 mantle cell lymphoma tumour cell lines. The cells are distributed onto microplates and exposed to the test compounds for 96 hours. MTT is then added for 4 hours and converted by NAD(P)H-dependent cellular oxidoreductase enzymes in forma/an, which has a purple color. The viable cell number is proportional to the production of formazan salts and cell viability can be quantified by the absorbance of the solution at 540 nm with a spectrophotometer (Carmichael et al., Cancer Res. 1987, 47, 936-942).

USP7 = biological target: T1, USP7 (Homo sapiens, UniProt Q93009, C315A); experiment: Inhibition of USP7 by Fluorescence Intensity (FLINT) readings, Ubiquitin-Rhodamine-110 substrate; type: biochemical; settings: 0.25 nM His-His-USP7 (aa208-560), 60 minutes at 30° C. preincubation; Ki determined from IC50 according to Cer et al.
T1 construct: 0.25 nM His-His-USP7 (aa208-560, |C315A|) was incubated with compound; His-His (N)
T1 sequence (Q93009 208-560 C315A): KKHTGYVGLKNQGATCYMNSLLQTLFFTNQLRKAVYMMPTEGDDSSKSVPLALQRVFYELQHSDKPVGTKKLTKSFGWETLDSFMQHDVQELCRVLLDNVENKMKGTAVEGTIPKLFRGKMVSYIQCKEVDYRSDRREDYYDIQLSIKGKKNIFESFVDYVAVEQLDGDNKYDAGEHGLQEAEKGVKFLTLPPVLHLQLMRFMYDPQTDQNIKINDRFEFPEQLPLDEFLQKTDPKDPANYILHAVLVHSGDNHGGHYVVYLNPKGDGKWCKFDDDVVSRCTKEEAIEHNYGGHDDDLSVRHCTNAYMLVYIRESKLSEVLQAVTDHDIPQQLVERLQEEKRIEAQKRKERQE
Method: USP7 activity was measured using Rhodamine-110 c-terminal labelled Ubiquitin as a substrate (UbiQ Bio), Incubation with USP7 results in the release of Rhodamine-110 leading to an increase in fluorescence which can be used in the continuous measurement of USP7 activity.
The USP7 reactions were performed in a 50 μL volume, in 384 well black solid low binding plates (Corning #3575). The reaction buffer consisted of 100 mM Bicine pH 8.0, 0.01% TritonX 100, 1 mM TCEP, and 10% DMSO.
0.25 nM His-His-USP7 (aa208-560, |C315A|) was incubated with compound (final concentration 10% DMSO) for 60 minutes at 30° C. The reaction was then initiated by the addition of 50) nM Ubiquitin-Rhodamine-110 substrate or 4 μM Ubiquitin-Rhodamine-110 substrate and the plate read every 3 minutes for 21 minutes to measure the release of Rhodamine-110. Fluorescence Intensity (FLINT) readings were measured using a Biomek Neo plate reader (Ex.485 nm, Em.535 nm).
The inhibition of increasing doses of compound was expressed as a percentage reduction in kinetic rate compared to the kinetic rates established between ‘DMSO only’ and ‘total inhibition’ controls (no USP7). The inhibitory concentrations that gave a 50% reduction in kinetic rate (IC50) were determined, from 11-point dose response curves, in XL-Fit using a 4-Parameter Logistic Model 205 (Sigmoidal Dose-Response Model). The K, values were determined from the IC50 values according to Cer et al. Nucleic Acids Res. 2009, July 1; 37 (WebServer issue): W441-W445.

`Cc1ccc(-c2nc(C)c(C(=O)N3CC[C@@H](C(=O)N4CCC(O)(Cn5cnc(Oc6ccc(F)cc6)c(N)c5=O)CC4)[C@H](c4ccccc4)C3)s2)cn1` [Example 47, 5-amino-6-(4-fluorophenoxy)-3-[(4-hydroxy-1-{(3R,4R)-1-[4-methyl-2-(6-methylpyridin-3-yl)-1,3-thiazole-5-carbonyl]-3-phenylpiperidine-4-carbonyl}piperidin-4-yl)methyl]pyrimidin-4(3H)-one] showed an IC50 ([1]; Homo sapiens, Z-138) of 0.92 nM and a Ki (USP7) of 2.2 nM.
With `Cc1ncc(-c2nc(C)c(C(=O)N3CC[C@@H](C(=O)N4CC[C@](O)(Cn5cnc(Oc6ccc(F)cc6)c(N)c5=O)C(F)(F)C4)[C@H](c4ccccc4)C3)s2)cc1C(F)(F)F` [Example 185, 5-amino-3-[[(4S)-3,3-difluoro-4-hydroxy-1-[(3R,4R)-1-[4-methyl-2-[6-methyl-5-(trifluoromethyl)-3-pyridyl]thiazole-5-carbonyl]-3-phenyl-piperidine-4-carbonyl]-4-piperidyl]methyl]-6-(4-fluorophenoxy)pyrimidin-4-one] the IC50 ([1]; Homo sapiens, Z-138) was 7.65 nM and the Ki (USP7) was 13 nM.
`COc1cc(Oc2ncn(C[C@@]3(O)CCN(C(=O)[C@@H]4CCN(Cc5nccc(C)n5)C[C@H]4c4ccccc4)CC3(F)F)c(=O)c2N)ccc1F` [Example 216] was tested, and the IC50 ([1]; Homo sapiens, Z-138) was 19.1 nM and the Ki (USP7) was 25.7 nM.
For `Nc1c(Oc2ccc(F)cc2)ncn(C[C@@]2(O)CCN(C(=O)[C@@H]3CCNC[C@H]3c3ccccc3)CC2(F)F)c1=O` [Example 11, 5-amino-3-[[(4S)-3,3-difluoro-4-hydroxy-1-[(3R,4R)-3-phenylpiperidine-4-carbonyl]-4-piperidyl]methyl]-6-(4-fluorophenoxy)pyrimidin-4-one], the IC50 ([1]; Homo sapiens, Z-138) was 390 nM and the Ki (USP7) was 99.4 nM.
With `Cc1cccc(C(=O)N2CC[C@@H](C(=O)N3CCC(O)(Cn4cnc(Oc5ccc(F)cc5)c(N)c4=O)CC3)[C@H](c3ccccc3)C2)n1` [Example 93] the IC50 ([1]; Homo sapiens, Z-138) was 86.4 nM and the Ki (USP7) was 51 nM.
`Cc1ccc(C2(N3CC[C@@H](C(=O)N4CCC(O)(Cn5cnc(Oc6ccc(F)cc6)c(N)c5=O)CC4)[C@H](c4ccccc4)C3)COC2)cc1` [Example 155] was tested, and the IC50 [1] was 588 nM and the Ki (USP7) was 97 nM.
For `COc1cc(Oc2ncn(C[C@@]3(O)CCN(C(=O)[C@@H]4CCN(Cc5cnc(C)cn5)C[C@H]4c4ccccc4)CC3(F)F)c(=O)c2N)ccc1F` [Example 154], the IC50 ([1]; Homo sapiens, Z-138) was 11.4 nM and the Ki (USP7) was 7.8 nM.
`Nc1c(Oc2ccc(F)cc2)ncn(C[C@@]2(O)CCN(C(=O)[C@@H]3CCN(C(=O)c4sc(I)cc4F)C[C@H]3c3ccccc3)CC2(F)F)c1=O` [Example 104, 5-amino-3-[[(4S)-3,3-difluoro-1-[(3R,4R)-1-(3-fluoro-5-iodo-thiophene-2-carbonyl)-3-phenyl-piperidine-4-carbonyl]-4-hydroxy-4-piperidyl]methyl]-6-(4-fluorophenoxy)pyrimidin-4-one] showed an IC50 ([1]; Homo sapiens, Z-138) of 37.2 nM and a Ki (USP7) of 15 nM.
For `Nc1c(Oc2cccc(C(F)(F)F)c2)ncn(CC2(O)CCN(C(=O)[C@@H]3CCN(C(=O)c4sc(-c5ccc(C(F)(F)F)nc5)cc4F)C[C@H]3c3ccccc3)CC2)c1=O` [Example 124, 5-amino-3-[[1-[(3R,4R)-1-[3-fluoro-5-[16-(trifluoromethyl)-3-pyridyl]thiophene-2-carbonyl]-3-phenyl-piperidine-4-carbonyl]-4-hydroxy-4-piperidyl]methyl]-6-[3-(trifluoromethyl)phenoxy]pyrimidin-4-one], the IC50 ([1]; Homo sapiens, Z-138) was 31.5 nM and the Ki (USP7) was 12 nM.
With `Cc1cc(C(=O)N2CC[C@@H](C(=O)N3CCC(O)(Cn4cnc(Oc5ccc(F)cc5)c(N)c4=O)CC3)[C@H](c3ccccc3)C2)cc(C)n1` [Example 97, 5-amino-3-({1-[(3R,4R)-1-(2,6-dimethylpyridine-4-carbonyl)-3-phenylpiperidine-4-carbonyl]-4-hydroxypiperidin-4-yl}methyl)-6-(4-fluorophenoxy)pyrimidin-4(3H)-one] the IC50 ([1]; Homo sapiens, Z-138) was 42.7 nM and the Ki (USP7) was 9.8 nM.
Compound `Nc1c(Oc2ccc(F)cc2)ncn(CC2(O)CCN(C(=O)[C@@H]3CCN(C4(c5cccc(C(F)(F)F)c5)COC4)C[C@H]3c3ccccc3)CC2)c1=O` [Example 152, 5-amino-6-(4-fluorophenoxy)-3-[[4-hydroxy-1-[(3R,4R)-3-phenyl-1-[3-[3-(trifluoromethyl)phenyl]oxetan-3-yl]piperidine-4-carbonyl]-4-piperidyl]methyl]pyrimidin-4-one] has an IC50 ([1]; Homo sapiens, Z-138) of 202 nM and a Ki (USP7) of 82 nM.
`COc1ccccc1C1(N2CC[C@@H](C(=O)N3CCC(O)(Cn4cnc(Oc5ccc(F)cc5)c(N)c4=O)CC3)[C@H](c3ccccc3)C2)COC1` [Example 139, 5-amino-6-(4-fluorophenoxy)-3-[[4-hydroxy-1-[(3R,4R)-1-[3-(2-methoxyphenyl)oxetan-3-yl]-3-phenyl-piperidine-4-carbonyl]-4-piperidyl]methyl]pyrimidin-4-one] showed an IC50 ([1]; Homo sapiens, Z-138) of 24.6 nM and a Ki (USP7) of 19 nM.
For `Nc1c(Oc2ccc(F)cc2)ncn(C[C@@]2(O)CCN(C(=O)[C@@H]3CCN(Cc4ccnc(Cl)n4)C[C@H]3c3ccccc3)CC2(F)F)c1=O` [Example 160], the IC50 ([1]; Homo sapiens, Z-138) was 6.47 nM and the Ki (USP7) was 16.9 nM.
`Nc1c(Oc2ccc(F)cc2)ncn(CC2(O)CCN(C(=O)[C@@H]3CCN(C(=O)c4cc(F)cc(Br)c4)C[C@H]3c3ccccc3)CC2)c1=O` [Example 98] gave an IC50 ([1]; Homo sapiens, Z-138) of 7 nM and a Ki (USP7) of 3.05 nM.
Compound `Cc1ccnc(C(=O)N2CC[C@@H](C(=O)N3CCC(O)(Cn4cnc(Oc5ccc(F)cc5)c(N)c4=O)CC3)[C@H](c3ccccc3)C2)c1` [Example 94, 5-amino-6-(4-fluorophenoxy)-3-[[4-hydroxy-1-[(3R,4R)-1-(4-methylpyridine-2-carbonyl)-3-phenyl-piperidine-4-carbonyl]-4-piperidyl]methyl]pyrimidin-4-one] has an IC50 ([1]; Homo sapiens, Z-138) of 49 nM and a Ki (USP7) of 30 nM.
With `Nc1c(Oc2ccc(F)cc2)ncn(C[C@@]2(O)CCN(C(=O)[C@@H]3CCN(Cc4ccccc4F)C[C@H]3c3ccccc3)CC2(F)F)c1=O` [Example 54, 5-amino-3-{[(4S)-3,3-difluoro-1-((3R,4R)-1-[(2-fluorophenyl)methyl]-3-phenylpiperidine-4-carbonyl}-4-hydroxypiperidin-4-yl}methyl)-6-(4-fluorophenoxy)pyrimidin-4(3H)-one] the IC50 ([1]; Homo sapiens, Z-138) was 9.1 nM and the Ki (USP7) was 13 nM.
Work on `Cn1cnc2ccc(C(=O)N3CC[C@@H](C(=O)N4CCC(O)(Cn5cnc(Oc6ccc(F)cc6)c(N)c5=O)CC4)[C@H](c4ccccc4)C3)cc2c1=O` [Example 123, 6-[(3R,4R)-4-(4-({5-amino-4-(4-fluorophenoxy)-6-oxopyrimidin-1(6H)-yl]methyl)-4-hydroxypiperidine-1-carbonyl)-3-phenylpiperidine-1-carbonyl]-3-methylquinazolin-4(3H)-one] yielded an IC50 ([1]; Homo sapiens, Z-138) of 43.2 nM and a Ki (USP7) of 6.92 nM.
`Nc1c(Oc2ccc(F)cc2)ncn(CC2(O)CCN(C(=O)[C@@H]3CCN(C(=O)c4ccccc4)C[C@H]3c3ccccc3)CC2)c1=O` [Example 36] was tested, and the IC50 ([1]; Homo sapiens, Z-138) was 8.93 nM and the Ki (USP7) was 15.1 nM.
With `Cn1c(C(=O)N2CC[C@@H](C(=O)N3CCC(O)(Cn4cnc(Oc5ccc(F)cc5)c(N)c4=O)CC3)[C@H](c3ccccc3)C2)ccc1-c1ccccc1` [Example 38] the IC50 ([1]; Homo sapiens, Z-138) was 11 nM and the Ki (USP7) was 14 nM.
Compound `Cc1cc(C(=O)N2CC[C@@H](C(=O)N3CCC(O)(Cn4cnc(Oc5ccc(F)cc5)c(N)c4=O)CC3)[C@H](c3ccccc3)C2)ccn1` [Example 91, 5-amino-6-(4-fluorophenoxy)-3-[[4-hydroxy-1-[(3R,4R)-1-(2-methylpyridine-4-carbonyl)-3-phenyl-piperidine-4-carbonyl]4-piperidyl]methyl]pyrimidin-4-one] has an IC50 ([1]; Homo sapiens, Z-138) of 76 nM and a Ki (USP7) of 13 nM.
